Tests used:
ABCB1 transporter [1] = target: T1, ABCB1 transporter (Homo sapiens, UniProt P08183); test: biochemical
ABCB1 transporter [2] = target: T1, ABCB1 transporter

T1 sequence (P08183 whole entry): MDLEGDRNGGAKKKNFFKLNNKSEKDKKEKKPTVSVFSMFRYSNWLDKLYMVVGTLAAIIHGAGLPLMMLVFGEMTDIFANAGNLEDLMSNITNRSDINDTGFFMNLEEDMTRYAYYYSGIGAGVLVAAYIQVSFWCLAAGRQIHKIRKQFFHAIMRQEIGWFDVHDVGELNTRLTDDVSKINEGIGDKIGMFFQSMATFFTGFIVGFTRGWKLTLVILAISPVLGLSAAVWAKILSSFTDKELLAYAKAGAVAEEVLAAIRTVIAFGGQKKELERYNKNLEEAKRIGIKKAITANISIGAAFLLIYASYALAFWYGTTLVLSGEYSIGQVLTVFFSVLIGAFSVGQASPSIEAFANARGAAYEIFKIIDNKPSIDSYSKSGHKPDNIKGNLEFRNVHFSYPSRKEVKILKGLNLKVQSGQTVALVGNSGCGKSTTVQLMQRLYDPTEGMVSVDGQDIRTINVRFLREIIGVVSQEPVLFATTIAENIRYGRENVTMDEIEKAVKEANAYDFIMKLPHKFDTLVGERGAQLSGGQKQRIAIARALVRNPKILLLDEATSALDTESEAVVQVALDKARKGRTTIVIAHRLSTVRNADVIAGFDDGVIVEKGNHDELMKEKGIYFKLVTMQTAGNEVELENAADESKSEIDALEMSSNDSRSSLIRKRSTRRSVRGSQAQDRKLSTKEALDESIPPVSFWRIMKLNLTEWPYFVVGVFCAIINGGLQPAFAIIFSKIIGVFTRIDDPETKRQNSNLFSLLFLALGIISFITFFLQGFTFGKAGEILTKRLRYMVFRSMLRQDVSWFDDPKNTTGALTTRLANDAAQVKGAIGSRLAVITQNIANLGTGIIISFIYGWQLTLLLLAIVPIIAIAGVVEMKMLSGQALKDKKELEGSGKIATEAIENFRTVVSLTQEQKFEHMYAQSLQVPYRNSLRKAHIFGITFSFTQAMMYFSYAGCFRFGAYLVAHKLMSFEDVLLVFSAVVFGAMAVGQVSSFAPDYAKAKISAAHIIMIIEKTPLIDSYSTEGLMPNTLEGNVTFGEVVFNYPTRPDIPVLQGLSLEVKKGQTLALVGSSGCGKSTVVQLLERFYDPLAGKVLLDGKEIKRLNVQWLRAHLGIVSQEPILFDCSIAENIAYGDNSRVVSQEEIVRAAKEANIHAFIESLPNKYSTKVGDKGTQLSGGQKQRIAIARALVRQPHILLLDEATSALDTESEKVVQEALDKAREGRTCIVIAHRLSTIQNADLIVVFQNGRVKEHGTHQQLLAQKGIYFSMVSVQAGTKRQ

Compound `CC(=O)c1c(C)c2cnc(Nc3ccc(N4CCNCC4)cn3)nc2n(C2CCCC2)c1=O` [palbociclib] has an EC50 (ABCB1 transporter [1]) of 4.73 µM.

For `CC(=O)O[C@H]1C(=O)[C@@]2(C)[C@H]([C@H](OC(=O)c3ccccc3)[C@]3(O)C[C@H](OC(=O)[C@H](O)[C@@H](NC(=O)c4ccccc4)c4ccccc4)C(C)=C1C3(C)C)[C@]1(OC(C)=O)CO[C@@H]1C[C@@H]2O` [[^3H]-paclitaxel], the “radiolabelled substrate accumulation/efflux in ABCB1-overexpressing KB-C2 vs par” value (ABCB1 transporter [2]) was “significantly greater than that of KB-C2 drug-resistant cancer cell line, due to an increase in the extrusion of [^3H]-paclitaxel”.
